What was measured:
Assay type in all cases: in vivo
[1] = test system: windgrass (Apera spica-venti); test: Test C postemergence: windgrass
How it was run: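 Response values are visual ratings, 0 (no effect) to 100 (complete control), made by comparison with untreated controls 13 to 15 days after postemergence treatment of greenhouse-grown potted plants that were 2 to 18 cm high at spraying.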

[2] = test system: Russian thistle (Salsola kali); test: Test C pre-/postemergence: Russian thistle; conditions: Preemergence
Excerpt: Seeds of plant species selected from blackgrass (Alopecurus myosuroides), bromegrass, downy (downy bromegrass, Bromus tectorum), foxtail, green (green foxtail, Setaria viridis), ryegrass, Italian (Italian ryegrass, Lolium multiflorum), winter wheat (Triticum aestivum), wild oat (Avena fatua), galium (catchweed bedstraw, Galium aparine), bermudagrass (Cynodon dactylon), surinam grass (Brachiaria decumbens), cocklebur (common cocklebur, Xanthium strumarium), corn (Zea mays), large crabgrass (Digitaria sanguinalis), woolly cupgrass (Eriochloa villosa), foxtail, giant (giant foxtail, Setaria faberii), goosegrass (Eleusine indica), johnsongrass (Sorghum halepense), kochia (Kochia scoparia), lambsquarters (Chenopodium album), morningglory (Ipomoea coccinea), nightshade (eastern black nightshade, Solanum ptycanthum), nutsedge, yellow (yellow nutsedge, Cyperus esculentus), pigweed (Amaranthus retroflexus), ragweed (common ragweed, Ambrosia elation), soybean (Glycine max), common (oilseed) sunflower (Helianthus annuus), Russian thistle (Salsola kali) and velvetleaf (Abutilon theophrasti) were planted into a blend of loam soil and sand and treated preemergence with test chemicals formulated in a non-phytotoxic solvent mixture which included a surfactant.
At the same time, plants selected from these crop and weed species and also barley (winter barley, Hordeum vulgare), canarygrass (Phalaris minor), chickweed (common chickweed, Stellaria media) windgrass (Apera spica-venti) and deadnettle (henbit deadnettle, Lamium amplexicaule) were planted in pots containing Redi-Earth® planting medium (Scotts Company, 14111 Scottslawn Road, Marysville, Ohio 43041) comprising spaghnum peat moss, vermiculite, wetting agent and starter nutrients and treated with postemergence applications of test chemicals formulated in the same manner. Plants ranged in height from 2 to 18 cm (1- to 4-leaf stage) for postemergence treatments.
(§1) Treated plants and controls were maintained in a greenhouse for 13 to 15 days, after which time all species were compared to controls and visually evaluated. Plant response ratings, summarized in Table C, are based on a scale of 0 to 100 where 0 is no effect and 100 is complete control. A dash (-) response means no test result.

[3] = test system: canarygrass (Phalaris minor); test: Test D pre-/postemergence: canarygrass
How it was run: (§2)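 Applied as a non-phytotoxic solvent formulation with surfactant, compounds were tested preemergence in silt loam and postemergence on seedlings 2 to 18 cm high in peat-vermiculite medium. Evaluation was visual, 0 meaning no effect and 100 complete control, at 14 to 21 days.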

[4] = test system: cocklebur (common cocklebur, Xanthium strumarium); test: Test C pre-/postemergence: cocklebur
How it was run: (§3)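 Visual injury scored 0–100 (100 = complete control) against untreated controls after 13–15 greenhouse days. Surfactant-containing solvent formulations applied either to soil after sowing (loam/sand) or over 1- to 4-leaf plants, 2–18 cm tall.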

[5] = test system: bluegrass (annual bluegrass, Poa annua); test: Test D pre-/postemergence: bluegrass
How it was run: as §2

[6] = test system: wheat, winter (winter wheat, Triticum aestivum); test: Test D pre-/postemergence: wheat, winter
Excerpt: Seeds of plant species selected from bluegrass (annual bluegrass, Poa annua), blackgrass (Alopecurus myosuroides), canarygrass (Phalaris minor), chickweed (common chickweed, Stellaria media), galium (catchweed bedstraw, Galium aparine), bromegrass, downy (downy bromegrass, Bromus tectorum), field poppy (Papaver rhoeas), field violet (Viola arvensis), foxtail, green (green foxtail, Setaria viridis), deadnettle (henbit deadnettle, Lamium amplexicaule), ryegrass, Italian (Italian ryegrass, Lolium multiflorum), kochia (Kochia scoparia), lambsquarters (Chenopodium album), oilseed rape (Brassica napus), pigweed (Amaranthus retroflexus), Russian thistle (Salsola iberica), chamomile (scentless chamomile, Matricaria inodora), speedwell (bird's-eye speedwell, Veronica persica), barley, spring (spring barley, Hordeum vulgare), wheat, spring (spring wheat, Triticum aestivum), buckwheat, wild (wild buckwheat, Polygonum convolvulus), mustard, wild (wild mustard, Sinapis arvensis), oat, wild (wild oat, Avena fatua), radish, wild (wild radish, Raphanus raphanistrum), windgrass (Apera spica-venti), barley, winter (winter barley, Hordeum vulgare), and wheat, winter (winter wheat, Triticum aestivum) were planted into a silt loam soil and treated preemergence with test chemicals formulated in a non-phytotoxic solvent mixture which included a surfactant. At the same time, these same crop and weed species were planted in pots containing the planting medium comprising spaghnum peat moss, vermiculite, wetting agent and starter nutrients and treated with postemergence applications of the test chemicals formulated in the same manner. Plants ranged in height from 2 to 18 cm (1- to 4-leaf stage).
as §1, with “controlled growth environment” for “greenhouse”, “14” for “13”, “21 days” for “15 days,”, “D,” for “C,”

[7] = test system: nightshade (eastern black nightshade, Solanum ptycanthum); test: Test C pre-/postemergence: nightshade; conditions: Preemergence
How it was run: as §3

rice (Oryza sativa) = test: Test B flooded paddy: rice; conditions: Flood; 250 g ai/ha; applied to paddy water at 2-leaf stage; visually evaluated after 13 to 15 days
How it was run: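 Two-leaf-stage plants, pots flooded (3 cm above soil) and treated through the water, which stayed at that depth. After 13–15 days in greenhouse conditions, visual assessment versus controls: 0 is no effect, 100 complete control, dash means no result.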

[8] = 31 g ai/ha, scale 0 to 100 (0 no effect, 100 complete control)
[9] = 62 g ai/ha, scale 0 to 100 (0 no effect, 100 complete control)
[10] = 125 g ai/ha, scale 0 to 100, 0 no effect, 100 complete control
[11] = 31 g ai/ha, scale of 0 to 100, 0 is no effect, 100 is complete control
[12] = 62 g ai/ha, scale of 0 to 100, 0 is no effect, 100 is complete control
[13] = 250 g ai/ha, scale 0 to 100, 0 no effect, 100 complete control
[14] = Postemergence, 31 g ai/ha, scale 0 to 100 (0 no effect, 100 complete control)
[15] = Postemergence, 62 g ai/ha, scale 0 to 100 (0 no effect, 100 complete control)
[16] = Postemergence, 125 g ai/ha, scale 0 to 100, 0 no effect, 100 complete control
[17] = Postemergence, 250 g ai/ha, scale 0 to 100 (0 no effect, 100 complete control)
[18] = Postemergence, 16 g ai/ha, scale 0 to 100
[19] = Preemergence, 16 g ai/ha, scale 0 to 100 (0 no effect, 100 complete control)
[20] = Preemergence, 31 g ai/ha, scale 0 to 100 (0 no effect, 100 complete control)
[21] = Preemergence, 62 g ai/ha, scale 0 to 100
[22] = Preemergence, 125 g ai/ha, scale 0 to 100
[23] = Preemergence, 250 g ai/ha, scale 0 to 100
[24] = Postemergence, 250 g ai/ha, scale 0 to 100
[25] = Preemergence, 31 g ai/ha, scale of 0 to 100, 0 is no effect, 100 is complete control
[26] = Preemergence, 125 g ai/ha, scale 0 to 100, 0 no effect, 100 complete control

Cc1nn(-c2ccc(F)cc2)nc1Cc1ccnc(C(F)(F)F)c1 [Compound 16, 4-[[2-(4-fluorophenyl)-5-methyl-2H-1,2,3-triazol-4-yl]methyl]-2-(trifluoromethyl)pyridine]
Plant response rating, Windgrass [1, 8]: 45
Plant response rating, Windgrass [1, 9]: 50
Plant response rating, Windgrass [1, 10]: 50
Plant response rating, Windgrass ([1]; 250 g ai/ha, scale 0 to 100): 50
Plant response rating, Russian Thistle [2, 11]: 45
Plant response rating, Russian Thistle [2, 12]: 100
Plant response rating, Russian Thistle [2, 10]: 100
Plant response rating, Russian Thistle [2, 13]: 100
Plant response rating: Canarygrass [3, 14]: 30
Plant response rating: Canarygrass [3, 15]: 35
Plant response rating: Canarygrass [3, 16]: 40
Plant response rating: Canarygrass [3, 17]: 80
Plant response rating, Canarygrass [3, 18]: 20
Plant response rating, Canarygrass [3, 19]: 20
Plant response rating, Canarygrass [3, 20]: 40
Plant response rating, Canarygrass [3, 21]: 50
Plant response rating, Canarygrass [3, 22]: 90
Plant response rating, Canarygrass [3, 23]: 100
Plant response rating, Cocklebur [4, 14]: 35
Plant response rating, Cocklebur [4, 15]: 45
Plant response rating, Cocklebur [4, 16]: 45
Plant response rating, Cocklebur [4, 24]: 45
Plant response rating: Bluegrass [5, 14]: 20
Plant response rating: Bluegrass [5, 15]: 40
Plant response rating: Bluegrass [5, 16]: 60
Plant response rating: Bluegrass [5, 17]: 70
Plant response rating, Bluegrass [5, 18]: 10
Plant response rating, Bluegrass [5, 19]: 0
Plant response rating, Bluegrass [5, 20]: 20
Plant response rating, Bluegrass [5, 21]: 20
Plant response rating, Bluegrass [5, 22]: 30
Plant response rating, Bluegrass [5, 23]: 100
Plant response rating: Wheat, Winter [6, 14]: 10
Plant response rating: Wheat, Winter [6, 15]: 15
Plant response rating: Wheat, Winter [6, 16]: 20
Plant response rating: Wheat, Winter [6, 17]: 25
Plant response rating, Wheat, Winter [6, 18]: 5
Plant response rating, Wheat, Winter [6, 19]: 0
Plant response rating, Wheat, Winter [6, 20]: 0
Plant response rating, Wheat, Winter [6, 21]: 0
Plant response rating, Wheat, Winter [6, 22]: 0
Plant response rating, Wheat, Winter [6, 23]: 0

Cc1nn(-c2ccc(F)c(C(F)(F)F)c2)nc1Oc1ccnc(C(F)(F)F)c1 [Compound 147]
Plant response rating, Russian Thistle [2, 11]: 0
Plant response rating, Russian Thistle [2, 12]: 90
Plant response rating, Russian Thistle [2, 10]: 90
Plant response rating, Russian Thistle [2, 13]: 90
Plant response rating: Canarygrass [3, 14]: 35
Plant response rating: Canarygrass [3, 15]: 55
Plant response rating: Canarygrass [3, 16]: 80
Plant response rating, Canarygrass [3, 18]: 15
Plant response rating, Canarygrass [3, 19]: 5
Plant response rating, Canarygrass [3, 20]: 35
Plant response rating, Canarygrass [3, 21]: 100
Plant response rating, Canarygrass [3, 22]: 100
Plant response rating, Nightshade [7, 11]: 98
Plant response rating, Nightshade [7, 12]: 98
Plant response rating, Nightshade [7, 10]: 98
Plant response rating, Nightshade [7, 13]: 98
Plant response rating, Cocklebur [4, 25]: 35
Plant response rating: Bluegrass [5, 14]: 10
Plant response rating: Bluegrass [5, 15]: 55
Plant response rating: Bluegrass [5, 16]: 70
Plant response rating, Bluegrass [5, 18]: 5
Plant response rating, Bluegrass [5, 19]: 0
Plant response rating, Bluegrass [5, 20]: 15
Plant response rating, Bluegrass [5, 21]: 20
Plant response rating, Bluegrass [5, 22]: 35
Plant response rating: Wheat, Winter [6, 14]: 15
Plant response rating: Wheat, Winter [6, 15]: 15
Plant response rating: Wheat, Winter [6, 16]: 20
Plant response rating, Wheat, Winter [6, 18]: 10
Plant response rating, Wheat, Winter [6, 19]: 0
Plant response rating, Wheat, Winter [6, 20]: 0
Plant response rating, Wheat, Winter [6, 21]: 0
Plant response rating, Wheat, Winter [6, 22]: 5
Plant response rating, Rice (0 to 100 scale, 0 is no effect, 100 is complete control) (rice (Oryza sativa)): 50

Cc1nn(-c2ccc(C(F)(F)F)cc2)nc1Cc1ccnc(C(F)(F)F)c1 [Compound 47, 4-[[5-methyl-2-[4-(trifluoromethyl)phenyl]-2H-1,2,3-triazol-4-yl]methyl]-2-(trifluoromethyl)pyridine]
Plant response rating, Windgrass [1, 8]: 60
Plant response rating, Windgrass [1, 9]: 80
Plant response rating, Windgrass [1, 10]: 85
Plant response rating, Windgrass ([1]; 250 g ai/ha, scale 0 to 100): 100
Plant response rating, Russian Thistle [2, 11]: 85
Plant response rating, Russian Thistle [2, 12]: 100
Plant response rating, Russian Thistle [2, 10]: 100
Plant response rating, Russian Thistle [2, 13]: 100
Plant response rating, Nightshade [7, 11]: 45
Plant response rating, Nightshade [7, 12]: 98
Plant response rating, Nightshade [7, 10]: 98
Plant response rating, Nightshade [7, 13]: 98
Plant response rating, Cocklebur [4, 14]: 10
Plant response rating, Cocklebur [4, 15]: 65
Plant response rating, Cocklebur [4, 16]: 70
Plant response rating, Cocklebur [4, 24]: 70
Plant response rating, Cocklebur [4, 25]: 0
Plant response rating, Cocklebur ([4]; Preemergence, 62 g ai/ha, scale 0 to 100, 0 no effect, 100 complete control): 0
Plant response rating, Cocklebur [4, 26]: 0
Plant response rating, Cocklebur ([4]; Preemergence, 250 g ai/ha, scale 0 to 100, 0 no effect, 100 complete control): 5

Fc1ccc(-n2nc(Cc3ccnc(C(F)(F)F)c3)c(OCC(F)(F)F)n2)cc1 [Compound 142]
Plant response rating, Windgrass [1, 8]: 80
Plant response rating, Windgrass [1, 9]: 80
Plant response rating, Windgrass [1, 10]: 85
Plant response rating, Windgrass ([1]; 250 g ai/ha, scale 0 to 100): 95
Plant response rating, Russian Thistle [2, 12]: 80
Plant response rating, Russian Thistle [2, 10]: 90
Plant response rating, Russian Thistle [2, 13]: 90
Plant response rating, Nightshade [7, 11]: 95
Plant response rating, Nightshade [7, 12]: 95
Plant response rating, Nightshade [7, 10]: 98
Plant response rating, Nightshade [7, 13]: 98
Plant response rating, Cocklebur [4, 15]: 30
Plant response rating, Cocklebur [4, 16]: 40
Plant response rating, Cocklebur [4, 24]: 50
Plant response rating, Cocklebur [4, 25]: 0
Plant response rating, Cocklebur ([4]; Preemergence, 62 g ai/ha, scale of 0 to 100, 0 is no effect, 100 is complete control): 10
Plant response rating, Cocklebur [4, 26]: 10
Plant response rating, Rice (0 to 100 scale, 0 is no effect, 100 is complete control) (rice (Oryza sativa)): 60

Reference: US9302999B2, “Substituted triazoles as herbicides” (E. I. DU PONT DE NEMOURS AND COMPANY, priority 2012, dated 2016)
